Reference: a melting point compilation (Tetko et al.; mined from patent text by program, amines drawn as free bases though some values may be those of a salt)

In the case of CN1CCC(=C2c3c(ccn3C)CCn3cnnc32)CC1, the melting point is reported as 214 °C.
For CCOC(=O)c1cc2cc3c(cc2oc1=O)OCO3, the melting point was 200 to 201 °C.
COc1ccc(C2CCc3c(OC(C)=O)cc(OC(C)=O)cc3O2)cc1OC(C)=O (centres undefined) gave a melting point of 106 to 107 °C.
Compound O=C(Nc1nnc(Cc2ccc(Cl)cc2)s1)c1ccc2cccnc2c1O has a melting point of 276 to 278 °C.
CC(=O)N1CC(CCN2CCC(c3ccccc3)CC2)c2cc3c(cc21)OCO3 (centres undefined) showed a melting point of 101 to 103 °C.
Work on Cc1cccc(C)c1-c1cccc(C(N)=O)c1 yielded a melting point of 123 to 125 °C.
With CC(=O)NC(CO)CCc1ccc(Sc2cccc(OCc3ccccc3)c2)cc1Cl (centres undefined) the melting point was 78 to 81 °C.
In the case of O=c1[nH]c2ccc(Cl)cc2n1C1CCCCC1, the melting point is reported as 206 to 208 °C.
With Cc1cc(C)c(C(=O)c2cccc(-n3ccnc3)c2)c(C)c1 the melting point was 134 to 136 °C.
In the case of CC1CNCCC1n1c(=O)[nH]c2cc(Cl)ccc21 (centres undefined), the melting point is reported as 199 °C.
For CCn1nc(C#N)c(Br)c1CC(C)C, the melting point was 50 to 51 °C.
Work on O=C(O)CCC(=O)c1ccc2[nH]c3nc(Cl)ccc3c2c1 yielded a melting point of 281 °C.
Work on Cc1noc(-c2cccc(CN3CCN(c4ccc(NC(=O)c5cccc(C)c5-c5ccc(C(C)C)cc5)cc4)CC3)c2)n1 yielded a melting point of 74 °C.
With CCn1cc(C(=O)OCC(=O)O)c(=O)c2cc3c(cc21)OCO3 the melting point was 240 to 243 °C.
With NC(=O)c1cc2c(OCCCN3CCN(C(c4ccccc4)c4ccccc4)CC3)cccc2[nH]1 the melting point was 222 to 223 °C.
CNc1ccc(N2CCOC2=O)cc1[N+](=O)[O-] gave a melting point of 192 °C.
With C#CCOc1nc(NN)c(C(F)(F)F)cc1Cl the melting point was 98 to 102 °C.
With COc1cccc(CN=C(Cc2ccccc2)N2CC3C(=O)CCC(c4ccccc4)(c4ccccc4)C3C2)c1 (centres undefined) the melting point was 127 °C.
O=C1c2c(O)cccc2C(SCC(O)CO)c2cccc(O)c21 (centres undefined) showed a melting point of 154 to 155 °C.
In the case of CN(C)C=NCc1ccc2c(c1)Nc1nccnc1S2, the melting point is reported as 218 to 219 °C.
CC(C)(C)OC(=O)CN(C(=O)CNC(=O)Nc1cccc(-c2nnn[nH]2)c1)c1ccccc1C(=O)c1ccccc1 showed a melting point of 163 to 175 °C.
With Nc1ccc(-c2noc(-c3cnn4c(C(F)F)cc(-c5ccc(C(F)(F)F)c(Cl)c5)nc34)n2)cn1 the melting point was 252 °C.
CCSc1c(Cl)nc(Cl)nc1Cl showed a melting point of 62 to 64 °C.
With COc1ccc(C(=O)Nc2cccc(C(=O)O)c2)c2cc(C(=O)c3ccccc3)oc12 the melting point was 262 to 263 °C.
Work on O=C(Nc1ccc(CNc2nc(NC3CC3)nc3ccccc23)cc1)c1ccc(F)cc1 yielded a melting point of 189 °C.
For COCn1ccc(C(=O)c2ccc(Cc3ccc(F)cc3)o2)c(O)c1=O, the melting point was 128 to 130 °C.
COc1ccc([C@@H](CC(N)=O)N2Cc3ccccc3C2=O)cc1OC gave a melting point of 191 to 193 °C.
For Cc1ccc2c3c(ccc2n1)OC[C@H](CN1CCN(c2ccc4ccccc4n2)C[C@@H]1C)O3, the melting point was 78 to 82 °C.
Compound O=C(C1CC=CCC1)N1c2ccccc2CCC1CN1CCN(c2cccc3[nH]ccc23)CC1 (centres undefined) has a melting point of 156 to 160 °C.
N#Cc1c(Sc2ccccc2)cccc1[N+](=O)[O-] gave a melting point of 106 to 107 °C.
COc1cc2c(cc1OC)[C@@H]1CCCC[C@@H]1N=C2c1ccc(NC(C)=O)cc1 (racemic) showed a melting point of 218 °C.
Compound ClCCOc1ccc2c(c1)CCC2 has a melting point of 45 to 46 °C.
In the case of OCCN1CCC(=C2c3ccccc3Sc3ccc(Cl)cc32)CC1, the melting point is reported as 178 to 180 °C.
With O=C(O)CCCCCCCNS(=O)(=O)c1ccc(Br)cc1 the melting point was 115 to 116 °C.
COc1cc(N)c(Cl)cc1C(=O)NCC1CCN(CCCCCCOCc2ccccc2)CC1 showed a melting point of 91 to 95 °C.
In the case of CCC1(O)CC(=O)OCc2c1cc1n(c2=O)Cc2c-1nc1cc(F)c(F)cc1c2-c1ccccc1 (centres undefined), the melting point is reported as greater than 250 °C.
Work on NCCCCn1cnc2ccccc21 yielded a melting point of 119 to 123 °C.
Compound CC1(C)OC(=O)Nc2ccc(-c3coc(C=NO)c3)cc21 has a melting point of 236 to 238 °C.
In the case of CC(C)N(CCN1C(=O)/C(=N/NC(=O)NC2CCCCC2)c2cc(Br)ccc21)C(C)C, the melting point is reported as 155 to 156 °C.
